Values quoted from earlier work in PMC5263201, “GABAA receptor occupancy by subtype selective GABAAα2,3 modulators: PET studies in humans” (Psychopharmacology, 2016).
Read-outs that look alike come from different tables or passages of the source.

Experiments:
[1] = molecular target: BZ binding site, hippocampus synaptosomal membranes; parameters: method as in Dubinsky et al 2002; settings: (e) rat brain synaptosomal membranes; [3H]Ro15-4513; ref Dubinsky et al 2002; read-out: Affinity in vitro at BZ binding site (Ki), hippocampus; cited from earlier work
GABAA receptor [2] = settings: cited from earlier work; for Receptor occupancy: ref Atack et al 2010a
GABAA receptor α3 = molecular target: GABAA receptor α3; parameters: method as in Sieghart 1995; settings: (d) review; ref Sieghart 1995; read-out: Affinity in vitro at BZ binding site (Ki) α3; cited from earlier work
GABAA receptor α5 = molecular target: GABAA receptor α5; parameters: method as in Sieghart 1995; settings: (d) review; ref Sieghart 1995; read-out: Affinity in vitro at BZ binding site (Ki) α5; cited from earlier work
GABAA receptor α2 = molecular target: GABAA receptor α2; parameters: method as in Sieghart 1995; settings: (d) review; ref Sieghart 1995; read-out: Affinity in vitro at BZ binding site (Ki) α2; cited from earlier work
[3] = molecular target: GABAA α1, α2, α3, and α5 subunits; parameters: method as in Sieghart 1995; settings: ref Sieghart 1995; read-out: K i for the GABAA α1, α2, α3, and α5 subunits; cited from earlier work
GABAA α4 and α6 subunits = molecular target: GABAA α4 and α6 subunits; parameters: method as in Sieghart 1995; settings: ref Sieghart 1995; read-out: K i for the α4 and α6 subunits; cited from earlier work
[4] = molecular target: human recombinant GABAA receptors containing β3, γ2 plus α3; parameters: method as in Atack et al 2010a; settings: L(tk-) cells, human recombinant β3γ2 plus α3; mean (SEM); ref Atack et al 2010a; read-out: Affinity in vitro at BZ binding site (Ki) α3; cited from earlier work
[5] = tested on: human recombinant GABAA receptors containing β3γ2 plus α2; parameters: method as in Atack et al 2010; settings: maximum potentiation of GABA EC20 currents relative to chlordiazepoxide; ref Atack et al 2010; cited from earlier work
GABAA α5β3γ2 = tested on: GABAA α5β3γ2; parameters: method as in Christian et al 2015; settings: 1µM test concentration, GABA EC10, % of 1 µM diazepam, mean ±SE, ref Christian et al 2015; cited from earlier work
[6] = molecular target: human recombinant GABAA receptors containing β3, γ2 plus α5; parameters: method as in Atack et al 2010a; settings: L(tk-) cells, human recombinant β3γ2 plus α5; mean (SEM); ref Atack et al 2010a; read-out: Affinity in vitro at BZ binding site (Ki) α5; cited from earlier work
[7] = molecular target: human recombinant GABAA receptors containing β3, γ2 plus α1; parameters: method as in Atack et al 2010a; settings: L(tk-) cells, human recombinant β3γ2 plus α1; mean (SEM); ref Atack et al 2010a; read-out: Affinity in vitro at BZ binding site (Ki) α1; cited from earlier work
[8] = ref Atack et al 2010a; cited from earlier work
GABAA α2β3γ2 = tested on: GABAA α2β3γ2; parameters: method as in Christian et al 2015; settings: 1µM test concentration, GABA EC10, % of 1 µM diazepam, mean ±SE, ref Christian et al 2015; cited from earlier work
[9] = tested on: human recombinant GABAA receptors containing β3γ2 plus α5; parameters: method as in Atack et al 2010; settings: maximum potentiation of GABA EC20 currents relative to chlordiazepoxide; ref Atack et al 2010; cited from earlier work
[10] = tested on: human recombinant GABAA receptors containing β3γ2 plus α3; parameters: method as in Atack et al 2010; settings: maximum potentiation of GABA EC20 currents relative to chlordiazepoxide; ref Atack et al 2010; cited from earlier work
GABAA α1β2γ2 = tested on: GABAA α1β2γ2; parameters: method as in Christian et al 2015; settings: 1µM test concentration, GABA EC10, % of 1 µM diazepam, mean ±SE, ref Christian et al 2015; cited from earlier work
[11] = tested on: human recombinant GABAA receptors containing β3γ2 plus α1; parameters: method as in Atack et al 2010; settings: ref Atack et al 2010, cited from earlier work; for Relative efficacy (%CDP) α1: maximum potentiation of GABA EC20 currents relative to chlordiazepoxide
[12] = molecular target: human recombinant GABAA receptors containing β3, γ2 plus α2; parameters: method as in Atack et al 2010a; settings: L(tk-) cells, human recombinant β3γ2 plus α2; mean (SEM); ref Atack et al 2010a; read-out: Affinity in vitro at BZ binding site (Ki) α2; cited from earlier work
GABAA α3β3γ2 = tested on: GABAA α3β3γ2; parameters: method as in Christian et al 2015; settings: 1µM test concentration, GABA EC10, % of 1 µM diazepam, mean ±SE, ref Christian et al 2015; cited from earlier work
[13] = tested on: human α2β2γ2 GABAA receptors; parameters: method as in Sanna et al 2002; settings: GABA-evoked Cl- currents, means ±SE, ref Sanna et al 2002; cited from earlier work
[14] = tested on: human α3β2γ2 GABAA receptors; parameters: method as in Sanna et al 2002; settings: GABA-evoked Cl- currents, means ±SE, ref Sanna et al 2002; cited from earlier work
[15] = tested on: human α5β2γ2 GABAA receptors; parameters: method as in Sanna et al 2002; settings: GABA-evoked Cl- currents, means ±SE, ref Sanna et al 2002; cited from earlier work
[16] = tested on: human α1β2γ2 GABAA receptors; parameters: method as in Sanna et al 2002; settings: GABA-evoked Cl- currents, means ±SE, ref Sanna et al 2002; cited from earlier work
GABAA receptor [17] = tested on: GABAA receptor; parameters: method as in Bottlaender et al 1994; settings: In NHP; corresponds to 4-500 µg/kg; ref Bottlaender et al 1994; cited from earlier work
GABAA receptor α1 = molecular target: GABAA receptor α1; parameters: method as in Sieghart 1995; settings: (d) review; ref Sieghart 1995; read-out: Affinity in vitro at BZ binding site (Ki) α1; cited from earlier work
[18] = molecular target: human recombinant GABAA receptors containing β3, γ2 plus α3; parameters: method as in Atack et al 1999; settings: (c) human recombinant β3γ2 plus α3; [3H]Ro 15-1788; ref Atack et al 1999; read-out: Affinity in vitro at BZ binding site (Ki) α3; cited from earlier work
[19] = molecular target: human recombinant GABAA receptors containing β3, γ2 plus α5; parameters: method as in Atack et al 1999; settings: (c) human recombinant β3γ2 plus α5; [3H]Ro 15-1788; ref Atack et al 1999; read-out: Affinity in vitro at BZ binding site (Ki) α5; cited from earlier work
[20] = molecular target: human recombinant GABAA receptors containing β3, γ2 plus α1; parameters: method as in Atack et al 1999; settings: (c) human recombinant β3γ2 plus α1; [3H]Ro 15-1788; ref Atack et al 1999; read-out: Affinity in vitro at BZ binding site (Ki) α1; cited from earlier work
[21] = molecular target: human recombinant GABAA receptors containing β3, γ2 plus α2; parameters: method as in Atack et al 1999; settings: (c) human recombinant β3γ2 plus α2; [3H]Ro 15-1788; ref Atack et al 1999; read-out: Affinity in vitro at BZ binding site (Ki) α2; cited from earlier work

## Cc1nnc2n1-c1ccc(Cl)cc1C(c1ccccc1)=NC2 [Alprazolam]
[1]
  Ki: 5 nM
GABAA receptor [2]; 2mg/day, sedation, ref Fujita et al 1999
  Receptor occupancy (RO): RO:16% (2mg/day, sedation) /Fujita et al 1999 Affinity: Dubinsky et al 2002

## CN1C(=O)CN=C(c2ccccc2)c2cc(Cl)ccc21 [Diazepam]
GABAA receptor α3
  Ki: 17 nM
GABAA receptor α5
  Ki: 14.9 nM
[1]
  Ki: 12.6 nM
GABAA receptor [2]; at 30mg, sedation, ref Pauli et al 1992
  Receptor occupancy (RO): RO:24%, at 30mg, sedation/ Pauli et al 1992 Affinity: c) Atack et al 1999, d) Sieghart 1995;
GABAA receptor α2
  Ki: 16.9 nM

## CCOC(=O)c1ncn2c1CN(C)C(=O)c1cc(F)ccc1-2 [Flumazenil]
[3]
  Ki: ~1 nM
GABAA α4 and α6 subunits
  Ki: ~150 nM

## O=C1Nc2ccc(Cl)cc2C(c2ccccc2Cl)=NC1O (centres unmarked) [Lorazepam]
[1]
  Ki: 8.6 nM
GABAA receptor [2]; 2 mg, ref Lindfors-Hughes et al 2005, Atack et al 2010b
  Receptor occupancy (RO): RO: ≤10% (2 mg) / Lindfors-Hughes et al 2005, Atack et al 2010b Affinity: Dubinsky et al 2002

## CCn1ncnc1COc1nn2c(-c3ccccc3F)nnc2cc1C(C)(C)C [TPA-023, 7-(1,1-dimethylethyl)-6-(2-ethyl-2H-1,2,4-triazol-3-ylmethoxy)-3-(2-fluorophenyl)-1,2,4-triazolo[4,3-b]pyridazine]
[4]
  Ki: 0.19 nM
[5]
  Relative efficacy (%CDP) α2: 11%
GABAA α5β3γ2
  Relative efficacy (%DZ) α5: 6±4%
[6]
  Ki: 0.41 nM
[7]
  Ki: 0.27 nM
[8]
  maximum tolerated dose (MTD): 2 mg
GABAA α2β3γ2
  Relative efficacy (%DZ) α2: 15±2%
[9]
  Relative efficacy (%CDP) α5: 5%
[10]
  Relative efficacy (%CDP) α3: 21%
GABAA α1β2γ2
  Relative efficacy (%DZ) α1: 5±3%
[11]
  Relative efficacy (%CDP) α1: 0%
  comment on intrinsic activity at α1: Christian et al 2015 Atack et al 2010 /antagonist at α1
[12]
  Ki: 0.31 nM
GABAA receptor [2]; at 2mg, MTD
  Receptor occupancy: 35-65%
GABAA receptor [2]; ref Atack et al. 2010, 2011a,b
  receptor occupancy with lack of overt sedation: up to 50%
GABAA α3β3γ2
  Relative efficacy (%DZ) α3: 17±1%

## CC(C)(O)c1cnn2c(-c3ccc(F)c(-c4c(F)cccc4C#N)c3)cnc2n1 [TPA-023B]
[4]
  Ki: 1.8 ± 0.4 nM
[5]
  Relative efficacy (%CDP) α2: 38±4%
[6]
  Ki: 1.1 ± 0.2 nM
[7]
  Ki: 0.73 ± 0.21 nM
[8]
  maximum tolerated dose (MTD): 2 mg
[9]
  Relative efficacy (%CDP) α5: 37±4%
[10]
  Relative efficacy (%CDP) α3: 50±2%
[11]
  Relative efficacy (%CDP) α1: 3±1%
[12]
  Ki: 2 ± 0.4 nM
GABAA receptor [2]; at 1.5 mg
  Receptor occupancy: 53%

## Cc1nnc2n1-c1ccc(Cl)cc1C(c1ccccc1Cl)=NC2 [Triazolam]
[13]
  Relative efficacy (%) α2, maximal percentage potentiation: 255±11%
[14]
  Relative efficacy (%) α3, maximal percentage potentiation: 270±13%
GABAA receptor α3
  Ki: 3 ± 0.7 nM
[15]
  Relative efficacy (%) α5, maximal percentage potentiation: 165±8%
GABAA receptor α5
  Ki: 1.2 ± 0.3 nM
[16]
  Relative efficacy (%) α1, maximal percentage potentiation: 132±6%
GABAA receptor [17]
  Receptor occupancy (RO): In NHP: 5-100% RO corresponds to 4-500 µg/kg/ Bottlaender et al 1994 Affinity: Sieghart 1995
GABAA receptor α1
  Ki: 1.8 ± 0.4 nM
GABAA receptor α2
  Ki: 1.2 ± 0.2 nM

## Cc1ccc(-c2nc3ccc(C)cn3c2CC(=O)N(C)C)cc1 [Zolpidem]
[13]
  Relative efficacy (%) α2, maximal percentage potentiation: 198±20%
[14]
  Relative efficacy (%) α3, maximal percentage potentiation: 217±34%
[18]
  Ki: 380 nM
GABAA receptor α3
  Ki: 357 nM
[19]
  Ki: > 10000 nM
[15]
  Relative efficacy (%) α5, maximal percentage potentiation: 15±5%
[16]
  Relative efficacy (%) α1, maximal percentage potentiation: 100±5%
GABAA receptor α1
  Ki: 17 nM
[20]
  Ki: 27 nM
[21]
  Ki: 160 nM
GABAA receptor [2]; 20mg, drowsiness, ref Abadie et al 1996
  Receptor occupancy (RO): 21%
GABAA receptor [2]; at 10mg therapeutic dose, ref Abadie et al 1996
  Receptor occupancy (RO): 15%
GABAA receptor α2
  Ki: 291 nM

## MRK-409
[4]
  Ki: 0.21 ± 0.03 nM
[5]
  Relative efficacy (%CDP) α2: 23%
[6]
  Ki: 0.23 ± 0.04 nM
[7]
  Ki: 0.22 ± 0.02 nM
[8]
  maximum tolerated dose (MTD): 1 mg
[9]
  Relative efficacy (%CDP) α5: 18%
[10]
  Relative efficacy (%CDP) α3: 45%
[11]
  Relative efficacy (%CDP) α1: 18%
  comment on intrinsic activity at α1: Atack et al 2010/weak partial agonist at α1
[12]
  Ki: 0.4 ± 0.07 nM
GABAA receptor [2]; at 1mg, MTD
  Receptor occupancy: < 10%
GABAA receptor [2]; ref Atack et al. 2010, 2011a,b
  receptor occupancy at severe sedation: < 10%
